Measured values published in patent US20050239656A1, “Pyridine compounds or salts thereof and herbicides containing the same” (priority 2002, published 2005).

Assays:
[1] = test system: corn; assay: Test Example 1: foliage treatment, upland pot test; assay type: in vivo, Zea mays L.; settings: crop, observed 18th to 23rd day, 0 = non-treated, 100 = complete kill
Method in brief: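 Corn seeds were sown in upland field soil held in a 1/170,000 ha pot and grown to the 2.1 to 3.2 leaf stage. A wettable powder or emulsifiable concentrate of the test compound was diluted with water at 500 L/ha, given 0.1% (v/v) agricultural spreader, and sprayed onto the foliage with a small sprayer. Growth controlling degree (%) was scored visually 18th to 23rd days later, from 0 (non-treated) to 100 (complete kill).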

[2] = test system: prickly sida; assay: Test Example 2: soil surface treatment, upland pot test; assay type: in vivo, Sida spinosa L.; settings: active ingredient 500 g/ha, observed 20th to 28th day
Method in brief: (§1)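 Pre-emergence: the soil surface was sprayed 1 day after sowing with wettable powder or emulsifiable concentrate diluted in water at 1,500 L/ha, at a predetermined active ingredient amount. Growth control was scored visually 20–28 days after treatment, 0 (untreated) to 100 (complete kill).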

[3] = test system: corn; assay: as above; assay type: in vivo, Zea mays L.; settings: active ingredient 500 g/ha, observed 20th to 28th day
Method in brief: as §1

[4] = test system: redroot pigweed; assay: Test Example 1: foliage treatment, upland pot test; assay type: in vivo, Amaranthus retroflexus L.; settings: observed 18th to 23rd day, 0 = non-treated, 100 = complete kill
[5] = test system: barnyardgrass; assay: Test Example 3: paddy pot test, application under submerged conditions; assay type: in vivo, Echinochloa crus-galli L.; settings: active ingredient 500 g/ha; submerged application at 0.5 leaf stage; visually observed 14 days after application; 0 = non-treated, 100 = complete kill
Method in brief: (§2)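 Seeds were sown in flooded paddy soil (0.5–1 cm water), wapato tubers were planted 1–2 days later, and water was then held at 3–4 cm. Diluted wettable powder or emulsifiable concentrate was pipetted into the water at the 0.5 leaf or primary leaf stage. Growth control was visually scored at 14 days (0–100%).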

[6] = test system: redroot pigweed; assay: Test Example 2: soil surface treatment, upland pot test; assay type: in vivo, Amaranthus retroflexus L.; settings: active ingredient 500 g/ha, observed 20th to 28th day
Method in brief: as §1

[7] = test system: crabgrass; assay: as above; assay type: in vivo, Digitaria sanguinalis L.; settings: active ingredient 500 g/ha, observed 20th to 28th day
Method in brief: as §1

[8] = test system: crabgrass; assay: Test Example 1: foliage treatment, upland pot test; assay type: in vivo, Digitaria sanguinalis L.; settings: observed 18th to 23rd day, 0 = non-treated, 100 = complete kill
[9] = test system: soybean; assay: Test Example 1: foliage treatment, upland pot test; assay type: in vivo, Glycine max Merr.; settings: crop, observed 18th to 23rd day, 0 = non-treated, 100 = complete kill
Method in brief: (§3)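 Each plant species was sprayed once on its foliage, with wheat at 1.3–2.4, soybean at 0.1–0.4, barnyardgrass at 1.3–2.8 and rice at 1.2–2.6 leaves. Visual ratings of growth inhibition, 0 to 100%, followed 18–23 days later.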

[10] = test system: rice; assay: Test Example 1: foliage treatment, upland pot test; assay type: in vivo, Oryza sativa L.; settings: crop, observed 18th to 23rd day, 0 = non-treated, 100 = complete kill
Method in brief: as §3

[11] = test system: green foxtail; assay: Test Example 2: soil surface treatment, upland pot test; assay type: in vivo, Setaria viridis L.; settings: active ingredient 500 g/ha, observed 20th to 28th day
Method in brief: as §1

[12] = test system: wheat; assay: Test Example 1: foliage treatment, upland pot test; assay type: in vivo, Triticum spp.; settings: crop, observed 18th to 23rd day, 0 = non-treated, 100 = complete kill
Source text: Upland field soil was put into a 1/170,000 ha pot, and seed of various plants were sown. Then, when the plants reached predetermined leaf stages ((1) barnyardgrass: 1.3 to 2.8 leaf stages, (2) crabgrass: 1.0 to 2.8 leaf stages, (3) green foxtail: 1.3 to 2.6 leaf stages, (4) redroot pigweed: 0.1 to 1.2 leaf stages, (5) prickly sida: 0.1 to 1.2 leaf stages, (6) velvetleaf: 0.1 to 1.2 leaf stages, (7) tall morningglory: 0.1 to 1.5 leaf stages, (8) rice: 1.2 to 2.6 leaf stages, (9) wheat: 1.3 to 2.4 leaf stages, (10) corn, 2.1 to 3.2 leaf stages, (11) soybean: 0.1 to 0.4 leaf stage), a wettable powder or emulsifiable concentrate having the compound of the present invention formulated in accordance with a usual formulation method, was weighed so that the active ingredient would be a predetermined amount, and diluted with water in an amount of 500 L/ha. To the diluted solution, 0.1% (v/v) of agricultural spreader was added. The herbicide thus adjusted was applied by a small size sprayer for foliage treatment. On the 18th to 23rd days after the application of the herbicide, the growth of the respective plants was visually observed, and the herbicidal effects were evaluated by the growth controlling degrees (%) ranging from 0 (equivalent to the non-treated plot) to 100 (complete kill), whereby the results shown in Table 3, were obtained.

[13] = test system: velvetleaf; assay: Test Example 2: soil surface treatment, upland pot test; assay type: in vivo, Abutilon theophrasti MEDIC.; settings: active ingredient 500 g/ha, observed 20th to 28th day
Method in brief: as §1

[14] = test system: rice; assay: as above; assay type: in vivo, Oryza sativa L.; settings: active ingredient 500 g/ha, observed 20th to 28th day
Method in brief: as §1

[15] = test system: soybean; assay: as above; assay type: in vivo, Glycine max Merr.; settings: active ingredient 500 g/ha, observed 20th to 28th day
Method in brief: as §1

[16] = test system: barnyardgrass; assay: Test Example 1: foliage treatment, upland pot test; assay type: in vivo, Echinochloa crus-galli L.; settings: observed 18th to 23rd day, 0 = non-treated, 100 = complete kill
Method in brief: as §3

[17] = test system: velvetleaf; assay: Test Example 1: foliage treatment, upland pot test; assay type: in vivo, Abutilon theophrasti MEDIC.; settings: observed 18th to 23rd day, 0 = non-treated, 100 = complete kill
[18] = test system: green foxtail; assay: Test Example 1: foliage treatment, upland pot test; assay type: in vivo, Setaria viridis L.; settings: observed 18th to 23rd day, 0 = non-treated, 100 = complete kill
[19] = test system: japanese bulrush; assay: Test Example 3: paddy pot test, application under submerged conditions; assay type: in vivo, Scirpus juncoides; settings: active ingredient 500 g/ha; submerged application at 0.5 leaf stage; visually observed 14 days after application; 0 = non-treated, 100 = complete kill
Method in brief: as §2

[20] = test system: barnyardgrass; assay: Test Example 2: soil surface treatment, upland pot test; assay type: in vivo, Echinochloa crus-galli L.; settings: active ingredient 500 g/ha, observed 20th to 28th day
Method in brief: as §1

[21] = test system: prickly sida; assay: Test Example 1: foliage treatment, upland pot test; assay type: in vivo, Sida spinosa L.; settings: observed 18th to 23rd day, 0 = non-treated, 100 = complete kill
[22] = test system: rice (var. Nihonbare); assay: Test Example 3: paddy pot test, transplanted rice; assay type: in vivo, Oryza sativa L.; settings: active ingredient 500 g/ha, applied 4th day after transplantation, visually observed 21st day after application, 0 = non-treated, 100 = complete kill
Method in brief: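 Rice (2-leaf stage) was transplanted 3 cm deep into puddled, leveled paddy soil under 3–4 cm flooding. On day 4 after transplanting, diluted wettable powder or emulsifiable concentrate was pipetted onto the water at a predetermined active-ingredient dose. Growth control (0 = untreated, 100 = complete kill) was scored visually 21 days later.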

[23] = test system: japanese ribbon wapato; assay: Test Example 3: paddy pot test, application under submerged conditions; assay type: in vivo, Sagittaria pygniaea; settings: active ingredient 500 g/ha; submerged application at primary leaf stage; visually observed 14 days after application; 0 = non-treated, 100 = complete kill
Method in brief: as §2

Structure (SMILES)	Growth controlling degree (%) Corn ([1]; active ingredient 500 g/ha) [%]	Growth controlling degree (%) Prickly sida [2] [%]	Growth controlling degree (%) Corn [3] [%]	Growth controlling degree (%) Redroot pigweed ([4]; active ingredient 500 g/ha) [%]	Growth controlling degree (%) Barnyardgrass [5] [%]	Growth controlling degree (%) Redroot pigweed [6] [%]	Growth controlling degree (%) Crabgrass [7] [%]	Growth controlling degree (%) Crabgrass ([8]; active ingredient 500 g/ha) [%]	Growth controlling degree (%) Soybean ([9]; active ingredient 500 g/ha) [%]	Growth controlling degree (%) Rice ([10]; active ingredient 500 g/ha) [%]	Growth controlling degree (%) Green foxtail [11] [%]	Growth controlling degree (%) wheat ([12]; active ingredient 500 g/ha) [%]	Growth controlling degree (%) Velvetleaf [13] [%]	Growth controlling degree (%) Rice [14] [%]	Growth controlling degree (%) Soyabean [15] [%]	Growth controlling degree (%) Barnyardgrass ([16]; active ingredient 500 g/ha) [%]	Growth controlling degree (%) Velvetleaf ([17]; active ingredient 500 g/ha) [%]	Growth controlling degree (%) Green foxtail ([18]; active ingredient 500 g/ha) [%]	Growth controlling degree (%) Japanese bulrush [19] [%]	Growth controlling degree (%) Rice [22] [%]	other results
CON=Cc1ccc(CC(=O)N(C)C(c2cnccc2C(F)(F)F)C(C)C)cc1 (racemic) [I-122]	80	50	10	70	98	60	100	95	80	10	100	0	30	20	10	80	70	60	100	10	Growth controlling degree (%) Barnyardgrass [20]: 98%; Growth controlling degree (%) Prickly sida ([21]; active ingredient 500 g/ha): 80%
COc1ccc(C=CC(=O)N(C)C(c2cnccc2C(F)(F)F)C(C)C)cc1 (stereo not drawn) [I-182]	60	10	10	50	100	30	100	80	70	20	95	10	50	50	10	80	50	50	98	0	Growth controlling degree (%) Japanese ribbon wapato [23]: 80%; Growth controlling degree (%) Barnyardgrass [20]: 90%; Growth controlling degree (%) Prickly sida ([21]; active ingredient 500 g/ha): 70%
CC(C)C(c1cnccc1C(F)(F)F)N(C)C(=O)C=Cc1ccc(C(F)(F)F)cc1 (stereo not drawn) [I-186]	50	10	30	50	98	40	98	60	70	10	100	60	0	20	0	50	60	40	95	10	Growth controlling degree (%) Barnyardgrass [20]: 40%; Growth controlling degree (%) Prickly sida ([21]; active ingredient 500 g/ha): 60%
CC(C)C(c1cnccc1C(F)(F)F)N(C)C(=O)C=Cc1cccc2ccccc12 (stereo not drawn) [I-187]	–	–	–	–	100	–	–	–	–	–	–	–	–	–	–	–	–	–	10	0	Growth controlling degree (%) Corn ([1]; active ingredient 1000 g/ha): 80%; Growth controlling degree (%) Redroot pigweed ([4]; active ingredient 1000 g/ha): 80%; Growth controlling degree (%) Japanese ribbon wapato [23]: 20%; Growth controlling degree (%) Crabgrass ([8]; active ingredient 1000 g/ha): 95%; Growth controlling degree (%) Soybean ([9]; active ingredient 1000 g/ha): 60%; Growth controlling degree (%) Rice ([10]; active ingredient 1000 g/ha): 30%; Growth controlling degree (%) wheat ([12]; active ingredient 1000 g/ha): 10%; Growth controlling degree (%) Barnyardgrass ([16]; active ingredient 1000 g/ha): 60%; Growth controlling degree (%) Velvetleaf ([17]; active ingredient 1000 g/ha): 40%; Growth controlling degree (%) Green foxtail ([18]; active ingredient 1000 g/ha): 60%; Growth controlling degree (%) Prickly sida ([21]; active ingredient 1000 g/ha): 90%
